Test results from PMC11052077, “Discovery of Dolutegravir Derivative against Liver Cancer via Inducing Autophagy and DNA Damage” (Molecules, 2024).

Experiments:
[1] = tested on: HRM cells (human renal mesangial cells); assay: in vitro; type: cell-based; conditions: 20 µM
Protocol: This study aimed to assess the anti-proliferative activity of dolutegravir-1,2,3-triazole derivatives on hepatocellular carcinoma cell lines, Huh7 and hepG2. A comprehensive CCK8 assay was employed to evaluate the impact of these compounds on cell viability, with cells treated at a concentration of 20 μM for 48 h. HRM cells, a normal cell line, were included as a control for comparative analysis. […]
(§1) CCK8 assay was used to measure cell viability. Cells with a density of 1 × 10^4 cells/well were seeded on 96-well plates. After adhesion, cells were treated with different diluted compounds or vehicle control DMSO and continued to be cultured for 48 h or 72 h, respectively. Then, CCK8 reagent was added for one hour incubation at 37 °C with 5% CO2. Absorbance was measured using a Microplate spectrophotometer (Thermo, Waltham, MA, USA) at 450 nm. The ratio of cell viability of control was taken as 100%. […] Then, IC50 of compounds were investigated using the prism statistical software 7.0.

hepG2 cells = assay: CCK8 cell viability assay, hepG2; type: cell-based, human; conditions: for Cell Viability (100%), 20 μM, 48 h, hepG2: hepG2, CCK8, control taken as 100%; for IC50: 48 h, hepG2, CCK8, read-out: half maximal inhibitory concentration (IC50), hepG2
Protocol: (§2) This study aimed to assess the anti-proliferative activity of dolutegravir-1,2,3-triazole derivatives on hepatocellular carcinoma cell lines, Huh7 and hepG2. A comprehensive CCK8 assay was employed to evaluate the impact of these compounds on cell viability, with cells treated at a concentration of 20 μM for 48 h. HRM cells, a normal cell line, were included as a control for comparative analysis.
(§3) Human hepatocellular carcinoma cell lines Huh7 and hepG2 were obtained from ATCC (Manassas, VA, USA). Cells were cultured in DMEM or RPMI 1640 medium containing 10% FBS and 1% penicillin/streptomycin at 37 °C with a 5% CO2-humidified atmosphere.
as §1

Huh7 cells = assay: CCK8 cell viability assay, Huh7; type: cell-based, human; conditions: for Cell Viability (100%), 20 μM, 48 h, Huh7: Huh7, CCK8, control taken as 100%; for IC50: 48 h, Huh7, CCK8, read-out: half maximal inhibitory concentration (IC50), Huh7
Protocol: as §2, §3, §1

Row | SMILES | Cell Viability (100%), 20 μM, 48 h, HRM [1] [%] | Cell Viability (100%), 20 μM, 48 h, hepG2 (hepG2 cells) [%] | Cell Viability (100%), 20 μM, 48 h, Huh7 (Huh7 cells) [%] | IC50 (hepG2 cells) [µM] | IC50 (Huh7 cells) [µM]
1 | COc1c2n(cc(C(=O)Nc3cccc(-c4cn(-c5ccccc5F)nn4)c3)c1=O)CC1OCCC(C)N1C2=O (stereo not drawn) [Compound 5a] | 71.18 | 90.43 | 83.32 |  | 
2 | COc1cc([N+](=O)[O-])ccc1-n1cc(-c2cccc(NC(=O)c3cn4c(c(OC)c3=O)C(=O)N3C(C)CCOC3C4)c2)nn1 (stereo not drawn) [Compound 5b] | 112.94 | 93.94 | 110.94 |  | 
3 | COc1c2n(cc(C(=O)Nc3cccc(-c4cn(-c5ccccc5C(F)(F)F)nn4)c3)c1=O)CC1OCCC(C)N1C2=O (stereo not drawn) [Compound 5c] | 2.65 | 54.14 | 36.28 | 18.3 ± 1.14 | 18.7 ± 0.53
4 | COc1c2n(cc(C(=O)Nc3cccc(-c4cn(-c5ccc(C(F)(F)F)cc5)nn4)c3)c1=O)CC1OCCC(C)N1C2=O (stereo not drawn) [Compound 5d] | 108.43 | 79.96 | 77.89 |  | 
5 | COc1c2n(cc(C(=O)Nc3cccc(-c4cn(-c5cccc(C)c5)nn4)c3)c1=O)CC1OCCC(C)N1C2=O (stereo not drawn) [Compound 5f] | 66.43 | 12.96 | 15.92 | 12.1 ± 0.77 | 8.63 ± 0.33
6 | COc1c2n(cc(C(=O)Nc3cccc(-c4cn(-c5ccc(F)cc5)nn4)c3)c1=O)CC1OCCC(C)N1C2=O (stereo not drawn) [Compound 5g] | 103.67 | 105.19 | 90.24 |  | 
7 | CCOc1ccc(-n2cc(-c3cccc(NC(=O)c4cn5c(c(OC)c4=O)C(=O)N4C(C)CCOC4C5)c3)nn2)cc1 (stereo not drawn) [Compound 5h] | 102.23 | 90.41 | 72.06 |  | 
8 | COc1c2n(cc(C(=O)Nc3cccc(-c4cn(-c5ccccc5OC(F)(F)F)nn4)c3)c1=O)CC1OCCC(C)N1C2=O (stereo not drawn) [Compound 5i] | 70.03 | 24.84 | 7.95 | 9.43 ± 0.7 | 12.3 ± 0.26
9 | COc1ccc(-n2cc(-c3cccc(NC(=O)c4cn5c(c(OC)c4=O)C(=O)N4C(C)CCOC4C5)c3)nn2)cc1OC (stereo not drawn) [Compound 5j] | 108.54 | 77.13 | 65.52 |  | 
10 | CCc1ccccc1-n1cc(-c2cccc(NC(=O)c3cn4c(c(OC)c3=O)C(=O)N3C(C)CCOC3C4)c2)nn1 (stereo not drawn) [Compound 5k] | 0.81 | 50.62 | 48.55 | 15.2 ± 1.15 | 16.9 ± 0.48
11 | COc1cccc(-n2cc(-c3cccc(NC(=O)c4cn5c(c(OC)c4=O)C(=O)N4C(C)CCOC4C5)c3)nn2)c1 (stereo not drawn) [Compound 5l] | 94.97 | 33.91 | 46.30 | 10.6 ± 0.67 | 7.62 ± 1.03
12 | CCc1ccc(-n2cc(-c3cccc(NC(=O)c4cn5c(c(OC)c4=O)C(=O)N4C(C)CCOC4C5)c3)nn2)cc1 (stereo not drawn) [Compound 5m] | 101.13 | 77.30 | 36.41 |  | 
13 | COc1c2n(cc(C(=O)Nc3cccc(-c4cn(-c5ccc(C(C)(C)C)cc5)nn4)c3)c1=O)CC1OCCC(C)N1C2=O (stereo not drawn) [Compound 5n] | 108.06 | 77.30 | 54.04 |  | 
14 | COc1c2n(cc(C(=O)Nc3cccc(-c4cn(-c5ccccc5)nn4)c3)c1=O)CC1OCCC(C)N1C2=O (stereo not drawn) [Compound 5o] | 100.28 | 80.21 | 67.64 |  | 
15 | COc1c2n(cc(C(=O)Nc3cccc(-c4cn(-c5cc(C(F)(F)F)ccc5C(F)(F)F)nn4)c3)c1=O)CC1OCCC(C)N1C2=O (stereo not drawn) [Compound 5q] | 91.40 | 38.49 | 12.00 | 18.5 ± 2.85 | 7.85 ± 0.9
16 | COc1c2n(cc(C(=O)Nc3cccc(-c4cn(-c5cc(C(F)(F)F)cc(C(F)(F)F)c5)nn4)c3)c1=O)CC1OCCC(C)N1C2=O (stereo not drawn) [Compound 5r] | 101.27 | 78.52 | 80.13 |  | 
17 | COc1ccccc1-n1cc(-c2cccc(NC(=O)c3cn4c(c(OC)c3=O)C(=O)N3C(C)CCOC3C4)c2)nn1 (stereo not drawn) [Compound 5t] | 73.24 | 41.93 | 29.33 | 11.2 ± 0.32 | 10.8 ± 0.85
18 | COc1c2n(cc(C(=O)Nc3cccc(-c4cn(-c5ccccc5Br)nn4)c3)c1=O)CC1OCCC(C)N1C2=O (stereo not drawn) [Compound 5u] | 100.10 | 47.16 | 33.46 | 34.7 ± 5.13 | 12.6 ± 0.58
19 | COc1c2n(cc(C(=O)Nc3cccc(-c4cn(-c5ccccc5Cl)nn4)c3)c1=O)CC1OCCC(C)N1C2=O (stereo not drawn) [Compound 5v] | 95.10 | 38.75 | 37.66 | 24.8 ± 2.21 | 42.2 ± 1.1
20 | COc1c2n(cc(C(=O)Nc3cccc(-c4cn(-c5ccccc5I)nn4)c3)c1=O)CC1OCCC(C)N1C2=O (stereo not drawn) [Compound 5w] | 92.77 | 54.35 | 49.87 | 25.7 ± 0.42 | 15.9 ± 0.31
21 | COc1c2n(cc(C(=O)Nc3cccc(-c4cn(-c5ccc(C)cc5)nn4)c3)c1=O)CC1OCCC(C)N1C2=O (stereo not drawn) [Compound 5y] | 103.82 | 69.40 | 79.52 |  | 
22 | COc1c2n(cc(C(=O)Nc3cccc(-c4cn(-c5c(C)cc(C)cc5C)nn4)c3)c1=O)CC1OCCC(C)N1C2=O (stereo not drawn) [Compound 5z] | 100.35 | 63.22 | 66.22 |  | 
23 | COc1c2n(cc(C(=O)Nc3cccc(-c4cn(Cc5cc(Br)cc(Br)c5)nn4)c3)c1=O)CC1OCCC(C)N1C2=O (stereo not drawn) [Compound 6a] | 84.46 | 66.48 | 75.97 |  | 
24 | COc1c2n(cc(C(=O)Nc3cccc(-c4cn(Cc5ccccc5)nn4)c3)c1=O)CC1OCCC(C)N1C2=O (stereo not drawn) [Compound 6b] | 99.53 | 57.81 | 68.00 |  | 
25 | COc1c2n(cc(C(=O)Nc3cccc(-c4cn(Cc5ccccc5Br)nn4)c3)c1=O)CC1OCCC(C)N1C2=O (stereo not drawn) [Compound 6c] | 105.55 | 46.80 | 39.13 | 27.8 ± 2.94 | 13.9 ± 0.81
26 | COc1cccc(Cn2cc(-c3cccc(NC(=O)c4cn5c(c(OC)c4=O)C(=O)N4C(C)CCOC4C5)c3)nn2)c1 (stereo not drawn) [Compound 6d] | 98.59 | 65.65 | 72.78 |  | 
27 | COc1c2n(cc(C(=O)Nc3cccc(-c4cn(Cc5cccc(Br)c5)nn4)c3)c1=O)CC1OCCC(C)N1C2=O (stereo not drawn) [Compound 6e] | 102.27 | 55.14 | 20.45 | 19.7 ± 2.19 | 16.2 ± 0.37
28 | COc1c2n(cc(C(=O)Nc3cccc(-c4cn(Cc5ccccc5F)nn4)c3)c1=O)CC1OCCC(C)N1C2=O (stereo not drawn) [Compound 6f] | 102.19 | 63.23 | 54.58 |  | 
29 | COc1c2n(cc(C(=O)Nc3cccc(-c4cn(Cc5ccccc5C)nn4)c3)c1=O)CC1OCCC(C)N1C2=O (stereo not drawn) [Compound 6g] | 101.52 | 52.95 | 39.11 |  | 
30 | COc1c2n(cc(C(=O)Nc3cccc(-c4cn(Cc5ccccc5C(F)(F)F)nn4)c3)c1=O)CC1OCCC(C)N1C2=O (stereo not drawn) [Compound 6h] | 93.73 | 66.45 | 50.37 |  | 
